Assay [1] has as its target T1, mfT1R2a/mfT1R3 (Oryzias latipes, UniProt Q2MHK2+Q2MHK5).
T1 sequence (Q2MHK5 20-819): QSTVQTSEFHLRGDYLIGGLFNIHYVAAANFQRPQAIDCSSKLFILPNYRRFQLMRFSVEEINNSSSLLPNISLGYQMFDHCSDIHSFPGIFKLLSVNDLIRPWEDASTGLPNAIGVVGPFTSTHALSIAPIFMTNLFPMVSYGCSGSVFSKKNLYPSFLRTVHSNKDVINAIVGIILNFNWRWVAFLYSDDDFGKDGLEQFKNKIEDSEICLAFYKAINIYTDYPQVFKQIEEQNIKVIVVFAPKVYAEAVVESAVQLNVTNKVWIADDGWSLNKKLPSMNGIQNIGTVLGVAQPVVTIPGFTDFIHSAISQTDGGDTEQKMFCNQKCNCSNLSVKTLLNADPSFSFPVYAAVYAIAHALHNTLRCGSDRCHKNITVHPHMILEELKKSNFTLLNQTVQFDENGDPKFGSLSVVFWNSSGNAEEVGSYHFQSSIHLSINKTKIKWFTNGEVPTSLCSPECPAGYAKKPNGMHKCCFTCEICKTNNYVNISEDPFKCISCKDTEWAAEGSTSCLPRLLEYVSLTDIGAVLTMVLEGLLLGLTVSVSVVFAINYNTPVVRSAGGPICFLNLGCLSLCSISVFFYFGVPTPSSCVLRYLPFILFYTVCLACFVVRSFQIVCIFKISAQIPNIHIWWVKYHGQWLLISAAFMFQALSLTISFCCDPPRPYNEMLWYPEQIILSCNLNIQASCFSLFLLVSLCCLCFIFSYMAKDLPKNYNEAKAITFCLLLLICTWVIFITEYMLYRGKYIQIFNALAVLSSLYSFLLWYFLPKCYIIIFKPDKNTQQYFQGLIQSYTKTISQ
T1 sequence (Q2MHK2 20-853): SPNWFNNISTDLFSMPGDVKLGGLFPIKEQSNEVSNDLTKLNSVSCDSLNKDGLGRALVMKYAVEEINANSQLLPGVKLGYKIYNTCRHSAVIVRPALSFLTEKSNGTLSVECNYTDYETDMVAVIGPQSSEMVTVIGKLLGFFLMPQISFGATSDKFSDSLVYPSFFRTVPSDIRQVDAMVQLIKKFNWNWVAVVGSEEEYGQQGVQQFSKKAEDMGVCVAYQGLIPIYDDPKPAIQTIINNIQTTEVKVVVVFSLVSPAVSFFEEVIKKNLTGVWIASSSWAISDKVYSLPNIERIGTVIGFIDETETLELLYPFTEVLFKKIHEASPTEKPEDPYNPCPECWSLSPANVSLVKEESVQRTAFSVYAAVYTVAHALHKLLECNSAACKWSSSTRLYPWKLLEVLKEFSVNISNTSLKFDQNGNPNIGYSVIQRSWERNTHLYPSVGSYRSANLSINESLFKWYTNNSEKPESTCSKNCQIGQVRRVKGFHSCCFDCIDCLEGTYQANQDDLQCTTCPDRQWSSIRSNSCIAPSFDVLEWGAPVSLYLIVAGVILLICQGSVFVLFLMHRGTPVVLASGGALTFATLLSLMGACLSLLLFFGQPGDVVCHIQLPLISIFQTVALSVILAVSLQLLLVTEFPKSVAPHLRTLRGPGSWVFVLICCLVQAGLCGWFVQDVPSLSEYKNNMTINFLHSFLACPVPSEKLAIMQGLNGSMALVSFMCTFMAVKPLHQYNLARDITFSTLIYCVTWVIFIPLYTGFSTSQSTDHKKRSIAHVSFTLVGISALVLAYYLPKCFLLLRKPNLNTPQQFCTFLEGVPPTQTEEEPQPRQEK
In words: Ca2+ mobilization dose-response assay, stable cells expressing mfT1R2a/mfT1R3 with G16gust44.
Procedure: (§1) The buffers with lower Cl^− were prepared by progressively replacing NaCl, KCl, CaCl2 and MgCl2 in the buffer with gluconate equivalents[20]. The pH was adjusted to 7.4 with NaOH. Ligands were diluted with the assay buffers at the desired concentrations.
Measurements of the responses of the cells by cell-based assay based on the intracellular Ca^2+ mobilization were carried out as described previously with some modifications[20],[34],[46],[47]. […] The cells were seeded in 96-well plates (clear-bottomed CellBIND surface plate, Corning, Glendale, AZ, USA) coated with ε-poly-L-lysine (Cosmo Bio, Tokyo, Japan) at approximately 70,000 cells per well. After 20 h, the medium was removed and replaced with high Cl^− buffer. After 3 h 30 min incubation at 27 °C, cells were loaded with 5 µM calcium-indicator dye Fluo-8 AM (AAT Bioquest, Sunnyvale, CA, USA) diluted in high Cl^− buffer. After incubation for 30 min at 27 °C, the cells were washed with buffers containing appropriate concentrations of Cl^−. The cellular assay was initiated after 3–5 min of resting and was completed within 5 min. The measurements were made using FlexStation 3 (Molecular Devices, Sunnyvale, CA, USA) at 27 °C. Fluorescence changes (i.e., excitation at 485 nm and emission at 525 nm with a cutoff at 515 nm) were monitored at 2 s intervals. A 100-µL aliquot of assay buffer supplemented with 2 × ligands was added at 20 s, and scanning was continued for an additional 40 s. The response of each well was determined as ∆RFU (delta relative fluorescent units), which was calculated as (maximum fluorescent value)—(minimum fluorescent value). […] Such normalized data from more than three independent experiments are reported as the mean ± standard error of the mean (SEM). Dose‒response fitting curves were calculated by Prism 9 (GraphPad Software, San Diego, CA) using nonlinear regression (log(agonist) vs. response—variable slope), based on the integrated data from the several independent experiments.

The subject of assay [2] is mfT1R2b/mfT1R3. The assay can be described thus: Ca2+ mobilization dose-response assay, stable cells expressing mfT1R2b/mfT1R3 with G16gust44. The note with it: 10 mM vs 141.4 mM Cl- buffer. In general terms: Calcium flux is commonly read through the fluorescence of an indicator in the cells.
Procedure: as §1
(§2) Measurements of the responses of the cells by cell-based assay based on the intracellular Ca^2+ mobilization were carried out as described previously with some modifications[20],[34],[46],[47]. […] The cells were seeded in 96-well plates (clear-bottomed CellBIND surface plate, Corning, Glendale, AZ, USA) coated with ε-poly-L-lysine (Cosmo Bio, Tokyo, Japan) at approximately 70,000 cells per well. After 20 h, the medium was removed and replaced with high Cl^− buffer. […] Fluorescence changes (i.e., excitation at 485 nm and emission at 525 nm with a cutoff at 515 nm) were monitored at 2 s intervals. […] The response of each well was determined as ∆RFU (delta relative fluorescent units), which was calculated as (maximum fluorescent value)—(minimum fluorescent value). […] Dose‒response fitting curves were calculated by Prism 9 (GraphPad Software, San Diego, CA) using nonlinear regression (log(agonist) vs. response—variable slope), based on the integrated data from the several independent experiments.
Assay [3] has as its system mfT1R2b E260K/mfT1R3. Format: cell-based, medaka fish. The note with it: 10 mM vs high Cl- buffer.
Procedure: as §1, §2
The test system of assay [4] is mfT1R2b E260A/mfT1R3. Format: cell-based, medaka fish. Conditions: 10 mM vs high Cl- buffer.
Procedure: as §1, §2

For `[Cl-].[Na+]` [NaCl], the “[Cl-]o at which sensitivity is clearly reduced” value in assay [1] (agonist L-Gln, buffers with 10-141.4 mM Cl-) is on record as “below 80 mM”. For the same molecule, in assay [1] (sensitivity to L-Gln, Fig. 2A,D), the “[Cl-]o required for saturation of the sensitivity” value was in the range of 40 to 80 mM.

Take `C[C@H](N)C(=O)O` [L-Ala, L-alanine]: the “EC50 in 10 mM Cl- buffer relative to high Cl- buffer” value in assay [1] (10 mM vs 141.4 mM Cl- buffer) is on record as around 7 times higher. In addition, the “effect of anionic buffer composition on sensitivity” value in assay [2] was “hardly affected”. In addition, the “effect of [Cl-]o on sensitivity” value in assay [3] and in assay [4] was “hardly affected” throughout.

These data come from publication PMC10539361, “Allosteric modulation of the fish taste receptor type 1 (T1R) family by the extracellular chloride ion” (Scientific Reports, 2023).
